Reference: patent US20150210741A1, “JAGARICIN DERIVATIVES AND THEIR USE AS FUNGICIDE OR ANTITUMOR AGENT” (Leibniz-Institut Für Naturstoff-Forschung Und …, priority 2012, published 2015)
Values after ≈ are worked out from the molar mass of the structure shown. Starred links: 1 amine or outer side, 2 acyl side, 3 side chain; linkers in the order of their positions; H or OH if unused. Positions of bridges follow the written chain, without caps; N, C: chain ends. Non-standard residues stand in square brackets, D forms with d. Residues, ends and D or L forms follow the SMILES beside them. *: point of attachment. Tetradecanoyl(3R-OH) = CCCCCCCCCCC[C@@H](O)CC(=O)*; X1 = C/C=C(/N[*:1])C(=O)[*:2]; Dhb = C/C=C(\N)C(=O)O

Assays:
Cytotoxic assay = format: cell-based; conditions: human, HeLa cells (human cervix carcinoma)
Description: (§1) 50 μL of different concentrated jagaricin solutions were each pipetted into a pierced hole (9 mm diameter) within an agar plate that was inoculated with the test strains C. albicans, A. fumigatus and A. terreus, respectively. After incubation at 24° C. over night the inhibition zone was measured. The antiproliferative and cytotoxic assay were performed as previously described (Abdou, R. et al., Phytochemistry, 2009. 71(1): p. 110-6).

mushroom tissue = experiment: Application of purified jagaricin on mushroom tissue; parameters: species or system Agaricus bisporus; conditions: purified jagaricin applied to mushroom tissue
bacteria = experiment: Antibacterial activity (data not shown); format: cell-based
[1] = test system: human umbilical vein endothelial cells HUVEC; experiment: Antiproliferative assay; format: cell-based
Description: as §1

[2] = test system: human chronic myeloid leukemia cells K-562; experiment: Antiproliferative assay; format: cell-based; conditions: K562, K-562, antiproliferative
Description: as §1

A. fumigatus = experiment: Agar diffusion antifungal bioactivity test; format: cell-based; conditions: Aspergillus fumigatus
Description: (§2) Janthinobacterium agaricidamnosum (DSM 9628) was retrieved from the German collection of microorganisms (DSM). The bacteria were cultured in nutrient media (605 DSM without NaCl; 1 g/L beef extract, 2 g/L yeast extract, 5 g/L peptone, 15 g/L agar). Plates and liquid cultures (shaken at 150 rpm in baffled flasks) were grown at 22° C. and 28° C., respectively. During screening plates and liquid cultures of modified nutrient agar (additional 4 g/L chitin, 100 g/L mushroom cubes), M9 (6 g/L Na2HPO4, 3 g/L KH2PO4, 0.5 g/L NaCl, 2 g/L NH4Cl, 4 g/L glucose, […], 2 mM MgSO4, 15 g/L agar), MS (20 g/L mannite, 20 g/L soy flour, 20 g/L agar) and modified VK (5 g/L glycine, 10 g/L yeast extract, 10 g/L glucose, 10 g/L corn steep, 10 g/L CaCO3, 15 g/L agar pH 6.7-7.0) media were used. For the production of jagaricin J. agaricidamnosum was grown in modified VK medium. The selection of positive J. agaricidamnosum mutants was carried out on nutrition agar supplemented with 50 μg/mL kanamycin. For the construction of pKG01, Escherichia coli Top 10 cells and E. coli ER2925 cells were used. E. coli was cultured in LB medium (10 g/L tryptone, 5 g/L yeast extract, 5 g/L NaCl, 1 g/L glucose) supplemented with 50 μg/mL kanamycin. Candida albicans, Aspergillus fumigatus and A. terreus were used for the bioactivity tests and they were cultivated on malt agar (C. albicans; 40 g/L malt extract, 4 g/L yeast extract, 15 g/L agar, pH 5.7-6.0) and potato glucose agar (A. fumigatus and A. terreus; 4 g/L potato starch infusion, 20 g/L dextrose, 15 g/L agar) plates, respectively.
as §1

C. albicans = experiment: Agar diffusion antifungal bioactivity test; format: cell-based; conditions: Candida albicans
Description: as §2, §1

A. terreus = experiment: Agar diffusion antifungal bioactivity test; format: cell-based; conditions: Aspergillus terreus
Description: as §2, §1

Structure (SMILES): C/C=C1\NC(=O)[C@@H](Cc2ccc(O)cc2)NC(=O)[C@@H]([C@H](C)O)NC(=O)[C@@H](NC(=O)/C(=C\C)NC(=O)C[C@H](O)CCCCCCCCCCC)[C@@H](C)OC(=O)[C@H](Cc2c[nH]cn2)NC(=O)[C@H]([C@@H](C)O)NC(=O)CNC(=O)[C@@H](CCC(N)=O)NC1=O [jagaricin] ({Tetradecanoyl(3R-OH)}-[X1]T[dT][dY][Dhb][dQ]GTH; ester 2-C)
- CC50 (Cytotoxic assay): 3.8 µM
- lesion on mushroom tissue (mushroom tissue): caused a superficial lesion on mushroom tissue
- antibacterial activity (bacteria): little or no antibacterial activity
- GI50 [1]: 1 µM
- GI50 [2]: 1 µM
- MIC (A. fumigatus): 0.41 µM (≈ 0.484 µg/mL)
- MIC (C. albicans): 0.42 µM (≈ 0.496 µg/mL)
- MIC (A. terreus): 0.28 µM (≈ 0.331 µg/mL)
